In one assay the target is T1, GLP-1R (Homo sapiens, UniProt P43220).
T1 construct: expressed in transfected cells
Kind of assay: GLP-1 receptor-mediated cAMP production in vitro. It is filed as cell-based. Particulars: HEK293 cell line stably expressing GLP-1R. As to the method: (§1) HEK293 cell line stably expressing GLP-1R or GCGR was used for screening GLP-1R and GCGR agonist.
(§2) Preparation of test sample: each compound was prepared into 100 μM stock solution, and then gradually diluted to working concentrations of 1 μM, 100 nM, 10 nM, 1 nM, 10^−1 nM, 10^−2 nM, 10^−3 nM, and H2O.
(§3) 1) Each compound to be tested was mixed with a serum-free medium (containing 0.1% BSA and 0.5 mM IBMX) to obtain a solution at a concentration 2 times the working concentration.
(§4) 2) The cells were digested, suspended in a serum-free medium (containing 0.5 mM IBMX), counted, and placed in a 384-well plate at a density of 1,000 cells/5 μL/well, then 5 μL of the testing compound was added, and the plate was placed in dark for reaction for 30 min.
(§5) 3) After the reaction was completed, a substrate for detecting cAMP was added, and the plate was placed in dark for reaction at the room temperature for 60 min.
(§6) 4) After the reaction was completed, the plate was placed on the Envision2104 multifunctional microplate reader for detection, and the ratio of optical density (OD) values at 665 nm and 615 nm were read out.

The next assay addresses T2, GCGR (Homo sapiens, UniProt P47871).
T2 construct: expressed in transfected cells
In words: GC receptor-mediated cAMP production in vitro. The following applies: HEK293 cell line stably expressing GCGR. Format: cell-based. As to the method:
as §1, §2, §3, §4, §5, §6

*1 amine or outer side, *2 acyl side, *3 side chain or, on linkers, in order; H or OH if unused. Where a SMILES comes first, the peptide text is derived from it. Side-chain parts run from the residue outwards. [ ]: non-standard residue; d: D form. The star is where a group is joined. C18 diacid = O=C(O)CCCCCCCCCCCCCCCCC(=O)*; γGlu = O=C(O)[C@H](CCC(=O)[*:2])N[*:1]; Palmitoyl = CCCCCCCCCCCCCCCC(=O)*; AEEA = NCCOCCOCC(=O)O; Aib = CC(C)(N)C(=O)O

T1 sequence (P43220 24-463, species assumed): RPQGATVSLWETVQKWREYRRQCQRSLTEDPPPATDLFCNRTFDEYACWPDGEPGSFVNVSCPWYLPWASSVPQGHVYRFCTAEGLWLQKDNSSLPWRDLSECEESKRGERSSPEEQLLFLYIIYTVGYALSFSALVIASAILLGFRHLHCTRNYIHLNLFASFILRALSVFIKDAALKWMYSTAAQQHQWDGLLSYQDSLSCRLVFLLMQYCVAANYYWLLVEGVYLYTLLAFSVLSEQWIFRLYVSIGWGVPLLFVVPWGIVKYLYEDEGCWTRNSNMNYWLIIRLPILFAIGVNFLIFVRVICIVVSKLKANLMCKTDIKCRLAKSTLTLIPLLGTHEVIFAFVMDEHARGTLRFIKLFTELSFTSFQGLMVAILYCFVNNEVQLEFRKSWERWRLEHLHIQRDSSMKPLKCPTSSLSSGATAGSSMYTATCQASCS
T2 sequence (P47871 26-477, species assumed): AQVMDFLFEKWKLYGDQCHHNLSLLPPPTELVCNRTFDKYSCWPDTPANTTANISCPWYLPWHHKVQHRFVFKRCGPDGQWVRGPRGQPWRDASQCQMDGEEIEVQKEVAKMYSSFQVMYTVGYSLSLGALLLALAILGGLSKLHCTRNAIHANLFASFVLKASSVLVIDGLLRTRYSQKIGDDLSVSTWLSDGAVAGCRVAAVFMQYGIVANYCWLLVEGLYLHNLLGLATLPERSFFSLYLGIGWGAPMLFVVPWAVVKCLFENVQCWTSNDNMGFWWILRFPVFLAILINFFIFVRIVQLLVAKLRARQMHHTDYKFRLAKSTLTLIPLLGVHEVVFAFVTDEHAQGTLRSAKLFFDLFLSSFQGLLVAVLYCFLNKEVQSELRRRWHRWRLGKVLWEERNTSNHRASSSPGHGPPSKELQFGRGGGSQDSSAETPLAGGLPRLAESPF

With `CCCCCCCCCCCCCCCC(=O)N[C@@H](CCC(=O)NCCCC[C@H](NC(=O)[C@H](C)NC(=O)[C@H](C)NC(=O)[C@H](CCCNC(=N)N)NC(=O)[C@H](CCC(=O)O)NC(=O)[C@H](CC(=O)O)NC(=O)[C@H](CC(C)C)NC(=O)[C@H](Cc1ccc(O)cc1)NC(=O)[C@H](CCCCN)NC(=O)[C@H](CO)NC(=O)[C@H](Cc1ccc(O)cc1)NC(=O)[C@H](CC(=O)O)NC(=O)[C@H](CO)NC(=O)[C@@H](NC(=O)[C@H](Cc1ccccc1)NC(=O)[C@@H](NC(=O)CNC(=O)[C@H](CCC(N)=O)NC(=O)[C@H](CO)NC(=O)[C@@H](N)Cc1c[nH]cn1)[C@@H](C)O)[C@@H](C)O)C(=O)N[C@@H](CCC(=O)O)C(=O)N[C@@H](Cc1ccccc1)C(=O)N[C@H](C(=O)N[C@@H](C)C(=O)N[C@@H](Cc1c[nH]c2ccccc12)C(=O)N[C@@H](CC(C)C)C(=O)N[C@@H](CCC(=O)O)C(=O)N[C@@H](C)C(=O)NCC(=O)NCC(N)=O)[C@@H](C)CC)C(=O)O` [dgc001] (HELM PEPTIDE1{H.S.Q.G.T.F.T.S.D.Y.S.K.Y.L.D.E.R.A.A.K.E.F.I.A.W.L.E.A.G.G.[am]}|PEPTIDE2{[CCCCCCCCCCCCCCCC(=O)[*:2]].[gGlu]}$PEPTIDE1,PEPTIDE2,20:R3-2:R2$$$V2.0; N-terminus assumed), the EC50 (as a rule, the midpoint of the concentration-response curve) on GLP-1R was 1.13 nM; at GCGR, 0.806 nM.

On to `CC[C@H](C)[C@H](NC(=O)[C@H](Cc1ccccc1)NC(=O)[C@H](CCC(=O)O)NC(=O)[C@H](CCCCNC(=O)COCCOCCNC(=O)COCCOCCNC(=O)CC[C@H](NC(=O)CCCCCCCCCCCCCCCCC(=O)O)C(=O)O)NC(=O)[C@H](C)NC(=O)[C@H](C)NC(=O)[C@H](CCCNC(=N)N)NC(=O)[C@H](CCC(=O)O)NC(=O)[C@H](CCC(=O)O)NC(=O)[C@H](CC(C)C)NC(=O)[C@H](Cc1ccc(O)cc1)NC(=O)[C@H](CCCCN)NC(=O)[C@H](CO)NC(=O)[C@H](Cc1ccc(O)cc1)NC(=O)[C@H](CC(=O)O)NC(=O)[C@H](CO)NC(=O)[C@@H](NC(=O)[C@H](Cc1ccccc1)NC(=O)[C@@H](NC(=O)CNC(=O)[C@H](CCC(N)=O)NC(=O)C(C)(C)NC(=O)[C@@H](N)Cc1c[nH]cn1)[C@@H](C)O)[C@@H](C)O)C(=O)N[C@@H](C)C(=O)N[C@@H](Cc1c[nH]c2ccccc12)C(=O)N[C@@H](CC(C)C)C(=O)N[C@@H](CCC(=O)O)C(=O)N[C@@H](C)C(=O)NCC(=O)NCC(N)=O` [dgc006] (H-H[Aib]QGTFTSDYSKYLEERAAK([AEEA-AEEA-γGlu-C18 diacid])EFIAWLEAGG-NH2; N-terminus assumed), for which the values for the EC50 at GLP-1R and on GCGR were 0.472 nM and 6.41 nM, respectively.

Consider `CCCCCCCCCCCCCCCC(=O)N[C@@H](CCC(=O)NCCCC[C@H](NC(=O)[C@H](C)NC(=O)[C@H](C)NC(=O)[C@H](CCCNC(=N)N)NC(=O)[C@H](CCC(=O)O)NC(=O)[C@H](CC(=O)O)NC(=O)[C@H](CC(C)C)NC(=O)[C@H](Cc1ccc(O)cc1)NC(=O)[C@H](CCCCN)NC(=O)[C@H](CO)NC(=O)[C@H](Cc1ccc(O)cc1)NC(=O)[C@H](CC(=O)O)NC(=O)[C@H](CO)NC(=O)[C@@H](NC(=O)[C@H](Cc1ccccc1)NC(=O)[C@@H](NC(=O)CNC(=O)[C@H](CCC(N)=O)NC(=O)C(C)(C)NC(=O)[C@@H](N)Cc1c[nH]cn1)[C@@H](C)O)[C@@H](C)O)C(=O)N[C@@H](CCC(=O)O)C(=O)N[C@@H](Cc1ccccc1)C(=O)N[C@H](C(=O)N[C@@H](C)C(=O)N[C@@H](Cc1c[nH]c2ccccc12)C(=O)N[C@@H](CC(C)C)C(=O)N[C@@H](CCC(=O)O)C(=O)N[C@@H](CO)C(=O)NCC(=O)NCC(N)=O)[C@@H](C)CC)C(=O)O` [dgc007] (HELM PEPTIDE1{H.[Aib].Q.G.T.F.T.S.D.Y.S.K.Y.L.D.E.R.A.A.K.E.F.I.A.W.L.E.S.G.G.[am]}|PEPTIDE2{[CCCCCCCCCCCCCCCC(=O)[*:2]].[gGlu]}$PEPTIDE1,PEPTIDE2,20:R3-2:R2$$$V2.0; N-terminus assumed), for which the EC50 on GLP-1R is 0.28 nM; at GCGR it was 0.971 nM.

Consider `CCCCCCCCCCCCCCCC(=O)N[C@@H](CCC(=O)NCCOCCOCC(=O)NCCOCCOCC(=O)NCCCC[C@H](NC(=O)[C@H](C)NC(=O)[C@H](C)NC(=O)[C@H](CCCNC(=N)N)NC(=O)[C@H](CCC(=O)O)NC(=O)[C@H](CCC(=O)O)NC(=O)[C@H](CC(C)C)NC(=O)[C@H](Cc1ccc(O)cc1)NC(=O)[C@H](CCCCN)NC(=O)[C@H](CO)NC(=O)[C@H](Cc1ccc(O)cc1)NC(=O)[C@H](CC(=O)O)NC(=O)[C@H](CO)NC(=O)[C@@H](NC(=O)[C@H](Cc1ccccc1)NC(=O)[C@@H](NC(=O)CNC(=O)[C@H](CCC(N)=O)NC(=O)C(C)(C)NC(=O)[C@@H](N)Cc1c[nH]cn1)[C@@H](C)O)[C@@H](C)O)C(=O)N[C@@H](CCC(=O)O)C(=O)N[C@@H](Cc1ccccc1)C(=O)N[C@H](C(=O)N[C@@H](C)C(=O)N[C@@H](Cc1c[nH]c2ccccc12)C(=O)N[C@@H](CC(C)C)C(=O)N[C@@H](CCC(=O)O)C(=O)N[C@@H](CO)C(=O)NCC(=O)NCC(N)=O)[C@@H](C)CC)C(=O)O` [dgc009] (H-H[Aib]QGTFTSDYSKYLEERAAK([AEEA-AEEA-γGlu-Palmitoyl])EFIAWLESGG-NH2; N-terminus assumed), for which the EC50 came out at 0.092 nM on GLP-1R and 8.22 nM at GCGR.

For the compound `CCCCCCCCCCCCCCCC(=O)N[C@@H](CCC(=O)NCCOCCOCC(=O)NCCOCCOCC(=O)NCCCC[C@H](NC(=O)[C@H](C)NC(=O)[C@H](C)NC(=O)[C@H](CCCNC(=N)N)NC(=O)[C@H](CCC(=O)O)NC(=O)[C@H](CCC(=O)O)NC(=O)[C@H](CC(C)C)NC(=O)[C@H](Cc1ccc(O)cc1)NC(=O)[C@H](CCCCN)NC(=O)[C@H](CO)NC(=O)[C@H](Cc1ccc(O)cc1)NC(=O)[C@H](CC(=O)O)NC(=O)[C@H](CO)NC(=O)[C@@H](NC(=O)[C@H](Cc1ccccc1)NC(=O)[C@@H](NC(=O)CNC(=O)[C@H](CCC(N)=O)NC(=O)C(C)(C)NC(=O)[C@@H](N)Cc1c[nH]cn1)[C@@H](C)O)[C@@H](C)O)C(=O)N[C@@H](CCC(=O)O)C(=O)N[C@@H](Cc1ccccc1)C(=O)N[C@H](C(=O)N[C@@H](C)C(=O)N[C@@H](Cc1c[nH]c2ccccc12)C(=O)N[C@@H](CC(C)C)C(=O)N[C@@H](CCC(=O)O)C(=O)N[C@@H](C)C(=O)NCC(=O)NCC(N)=O)[C@@H](C)CC)C(=O)O` [dgc011] (H-H[Aib]QGTFTSDYSKYLEERAAK([AEEA-AEEA-γGlu-Palmitoyl])EFIAWLEAGG-NH2; N-terminus assumed), the EC50 on GLP-1R amounted to 0.955 nM; on GCGR, 4.13 nM.

For `CC(C)C[C@H](NC(=O)[C@H](Cc1c[nH]c2ccccc12)NC(=O)[C@H](C)NC(=O)[C@@H](NC(=O)[C@H](Cc1ccccc1)NC(=O)[C@H](CCC(=O)O)NC(=O)[C@H](CCCCNC(=O)COCCOCCNC(=O)COCCOCCNC(=O)CC[C@H](NC(=O)CCCCCCCCCCCCCCCCC(=O)O)C(=O)O)NC(=O)[C@H](C)NC(=O)[C@H](C)NC(=O)[C@H](CCCNC(=N)N)NC(=O)[C@H](CCC(=O)O)NC(=O)[C@H](CCC(=O)O)NC(=O)[C@H](CC(C)C)NC(=O)[C@H](Cc1ccc(O)cc1)NC(=O)[C@H](CCCCN)NC(=O)[C@H](CO)NC(=O)[C@H](Cc1ccc(O)cc1)NC(=O)[C@H](CC(=O)O)NC(=O)[C@H](CO)NC(=O)[C@@H](NC(=O)[C@H](Cc1ccccc1)NC(=O)[C@@H](NC(=O)CNC(=O)[C@H](CCC(N)=O)NC(=O)[C@@H](CO)NC(=O)[C@@H](N)Cc1c[nH]cn1)[C@@H](C)O)[C@@H](C)O)C(C)C)C(=O)N[C@@H](CCC(=O)O)C(=O)NCC(=O)NCC(N)=O` [dgc012] (H-H[dS]QGTFTSDYSKYLEERAAK([AEEA-AEEA-γGlu-C18 diacid])EFVAWLEGG-NH2; N-terminus assumed), the EC50 stood at 0.044 nM at GLP-1R and 2.17 nM on GCGR.

For the compound `CCCCCCCCCCCCCCCC(=O)N[C@@H](CCC(=O)NCCCC[C@H](NC(=O)[C@H](C)NC(=O)[C@H](C)NC(=O)[C@H](CCCNC(=N)N)NC(=O)[C@H](CCC(=O)O)NC(=O)[C@H](CC(=O)O)NC(=O)[C@H](CC(C)C)NC(=O)[C@H](Cc1ccc(O)cc1)NC(=O)[C@H](CCCCN)NC(=O)[C@H](CO)NC(=O)[C@H](Cc1ccc(O)cc1)NC(=O)[C@H](CC(=O)O)NC(=O)[C@H](CO)NC(=O)[C@@H](NC(=O)[C@H](Cc1ccccc1)NC(=O)[C@@H](NC(=O)CNC(=O)[C@H](CCC(N)=O)NC(=O)C(C)(C)NC(=O)[C@@H](N)Cc1c[nH]cn1)[C@@H](C)O)[C@@H](C)O)C(=O)N[C@@H](CCC(=O)O)C(=O)N[C@@H](Cc1ccccc1)C(=O)N[C@H](C(=O)N[C@@H](C)C(=O)N[C@@H](Cc1c[nH]c2ccccc12)C(=O)N[C@@H](CC(C)C)C(=O)N[C@@H](CCC(=O)O)C(=O)NCC(=O)NCC(N)=O)[C@@H](C)CC)C(=O)O` [dgc014] (HELM PEPTIDE1{H.[Aib].Q.G.T.F.T.S.D.Y.S.K.Y.L.D.E.R.A.A.K.E.F.I.A.W.L.E.G.G.[am]}|PEPTIDE2{[CCCCCCCCCCCCCCCC(=O)[*:2]].[gGlu]}$PEPTIDE1,PEPTIDE2,20:R3-2:R2$$$V2.0; N-terminus assumed), the EC50 on GLP-1R came to 0.516 nM; at GCGR it was 0.821 nM.
